The source of these data is patent US12358999B2, “Protein recognizing drug moiety of antibody-drug conjugate” (DAIICHI SANKYO COMPANY, LIMITED, priority 2018, dated 2025).

In assay [1] the test system is mouse antibody 1A3. In words: Specificity of mouse antibody 1A3: immunostaining after mixing with compound (Example 9 ii). The following applies: CDH6-ADC (I) treated NOG mouse tumor; blending ratio 1A3: compound (2): SN-38 0.1:0.04:0.03. In kind it is binding. On the procedure:
To a highly immunodeficient mouse (NOG mouse), a human tumor taken from a patient with clear cell renal cell carcinoma was subcutaneously transplanted. After CDH6-ADC (I) was administered, the tumor tissue was taken to prepare paraffin-embedded specimens. Then, stainability of mouse antibody 1A3 was examined. The tumor tissue was taken from an NOG mouse to which CDH6-ADC (I) was not administered and used as a negative control. Deparaffinization and antigen activation were carried out using Autostainer Link pretreatment system (PT Link, manufactured by DAKO) and an antigen retrieval solution (Target Retrieval Solution Low pH, manufactured by DAKO) at 97° C. for 40 minutes. The following staining operation was carried out using an automatic staining device (Dako Autostainer Link 48: manufactured by DAKO) at room temperature. After washing once with EnVision FLEX WASH BUFFER (manufactured by DAKO), Peroxidase Block 3% H2O2 (manufactured by DAKO) was added; incubation was carried out for 5 minutes; and washing was carried out once with EnVision FLEX WASH BUFFER. Protein Block serum free (manufactured by DAKO) was added; incubation was carried out for 30 minutes; and liquid was removed by air blow. Mouse antibody 1A3 was diluted with REAL Antibody Diluent (manufactured by DAKO) to fall in the range of 0.03 μg/mL to 0.3 μg/mL and reaction was made for 60 minutes. […]

The subject of assay [2] is mouse antibody 1A3. As to the kind of experiment: Specificity of mouse antibody 1A3: immunostaining after mixing with compound (Example 5 ii). In kind it is binding. The following applies: Example 5, written in present tense; blending ratio 0.1:0.04:0.03. As to the method:
To a highly immunodeficient mouse (NOG mouse), a human-derived tumor is subcutaneously transplanted. After the antibody-drug conjugate according to the present invention is administered, the tumor tissue is taken to prepare paraffin-embedded specimens. Then, stainability of a mouse antibody 1A3 is examined. The tumor tissue is taken from a NOG mouse to which the antibody-drug conjugate according to the present invention is not administered and used as a negative control. Deparaffinization and antigen activation are carried out using Autostainer Link pretreatment system (PT Link, manufactured by DAKO) and an antigen retrieval solution (Target Retrieval Solution Low pH, manufactured by DAKO). The following staining operation is carried out using an automatic staining device (Dako Autostainer Link 48: Manufactured by DAKO). After washing with EnVision FLEX WASH BUFFER (manufactured by DAKO), Peroxidase Block 3% H2O2 (manufactured by DAKO) is add; incubation is carried out; and washing is carried out with EnVision FLEX WASH BUFFER. Protein Block serum free (manufactured by DAKO) is added; incubation s carried out; and liquid is removed by air blow. Mouse antibody 1A3 is diluted with REAL Antibody Diluent (manufactured by DAKO) and reacted. […]

Assay [3] concerns mouse antibody 1A3. In words: Competitive inhibition with HER2-ADC (I), chemical structure recognized by mouse antibody 1A3 (Gyrolab). In kind it is binding. The note with it: compound 1 and 100 μg/mL dilution solutions; response at HER2-ADC (I) 250 ng/mL. An excerpt: The chemical structure to be recognized by mouse antibody 1A3 was checked by competitive inhibition with HER2-ADC (I) using Gyrolab xP workstation (GYROS PROTEIN Technologies). As the compound for use in competitive inhibition, compound (1), compound (2), compound (7), compound (8), compound (9), compound (10), compound (11), Topotecan and Rubitecan were selected.
As the capture reagent, mouse antibody 1A3 labeled with biotin by a labeling kit (ChromaLink Biotin Protein LABELING Kit, Solulink) was used. The concentration thereof was controlled to be 700 nM with 0.1% PS20-containing PBS. The compounds for use in competitive inhibition, compound (1), compound (2), compound (7), compound (8), compound (9), compound (10), compound (11), Topotecan and Rubitecan were separately dissolved in DMSO. The solutions each was diluted with 10% or 20% DMSO in Rexxip HN (GYROS PROTEIN Technologies) to prepare 0, 1 and 100 μg/mL dilution solutions. To each of them, the 700 nM mouse antibody 1A3 solution was added in an equal amount. The mixture was stirred and allowed to react at room temperature in a dark place for one hour or more. The concentration of HER2-ADC (I) was controlled with Rexxip HN to be 0, 0.244, 0.977, 3.91, 15.6, 62.5, 250 and 1000 ng/mL. As the detection reagent, Mouse Anti-(Anti-HER2 Ab) idiotype Ab (13C1) (IBL) was labeled by DyLight650 (registered trademark) labeling kit and put in use. The concentration thereof was controlled with Rexxip F (GYROS PROTEIN Technologies) to be 10 nM. The above solution was set at Gyrolab xP workstation and measurement was carried out by use of Gyrolab Bioaffy 200 at 200-3W-002-A (PMT5). The regression analysis was carried out by use of Gyrolab Evaluator 3.4.0.24 in 4-parametric logistic model (weight: Response). The calibration curve of HER2-ADC (I) was prepared per concentration of the competitive inhibition compound. The inhibition rate (%) was calculated by comparing the response at an HER2-ADC (I) concentration of 250 ng/mL to that of the case where no compound was added (concentration 0 ng/mL).

A further assay deals with T1, topoisomerase I (Homo sapiens, UniProt P11387).
T1 sequence (P11387 1-765): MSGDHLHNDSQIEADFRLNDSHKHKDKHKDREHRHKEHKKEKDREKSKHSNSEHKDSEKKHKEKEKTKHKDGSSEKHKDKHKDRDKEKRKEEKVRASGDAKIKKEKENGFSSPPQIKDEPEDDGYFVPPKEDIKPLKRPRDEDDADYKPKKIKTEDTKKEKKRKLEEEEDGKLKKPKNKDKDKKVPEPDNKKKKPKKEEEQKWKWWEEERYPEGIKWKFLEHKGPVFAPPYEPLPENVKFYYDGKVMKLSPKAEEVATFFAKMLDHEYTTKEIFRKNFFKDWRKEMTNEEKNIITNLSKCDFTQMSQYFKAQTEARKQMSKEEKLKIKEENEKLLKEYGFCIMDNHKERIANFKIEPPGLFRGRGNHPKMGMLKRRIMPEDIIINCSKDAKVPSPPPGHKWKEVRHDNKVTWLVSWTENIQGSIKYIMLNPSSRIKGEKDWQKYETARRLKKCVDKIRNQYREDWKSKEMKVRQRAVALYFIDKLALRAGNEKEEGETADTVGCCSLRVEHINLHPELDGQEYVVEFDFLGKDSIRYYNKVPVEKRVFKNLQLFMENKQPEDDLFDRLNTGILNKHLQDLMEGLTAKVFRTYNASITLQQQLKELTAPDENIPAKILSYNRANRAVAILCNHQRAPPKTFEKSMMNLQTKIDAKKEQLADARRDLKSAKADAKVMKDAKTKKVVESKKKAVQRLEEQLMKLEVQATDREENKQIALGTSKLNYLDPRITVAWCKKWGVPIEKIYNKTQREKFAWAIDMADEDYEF
The note with it: cited from earlier work.

Take `CCc1c2c(nc3ccc(O)cc13)-c1cc3c(c(=O)n1C2)COC(=O)[C@]3(O)CC` [SN-38, reference compound]: the “staining ability of mouse antibody 1A3 after mixing with the compound” value in the assay on mouse antibody 1A3 [1] is “did not disappear”. The “stainability of mouse antibody 1A3 after mixing with the compound” value in the assay with mouse antibody 1A3 [2] was “does not disappear”.

As for `CC[C@@]1(O)C(=O)OCc2c1cc1n(c2=O)Cc2c-1nc1cc(F)c(C)c3c1c2[C@@H](NC(=O)CO)CC3` [compound (2)], the “staining ability of mouse antibody 1A3 after mixing with the compound” value in the assay with mouse antibody 1A3 [1] is “disappeared”. Further, the “competitive inhibition of recognition of mouse antibody 1A3 to HER2-ADC (I) (inhibition rate, FIG. 41)” value in the assay with mouse antibody 1A3 [3] was “strong competitive inhibition”. In the assay with mouse antibody 1A3 [2], the “stainability of mouse antibody 1A3 after mixing with the compound” value is on record as “disappears”. Also, the “topoisomerase I inhibitory activity” value on topoisomerase I is “topoisomerase I inhibitory effect”.
